We go through eight compounds from paper PMC11173677, “Identification and Evaluation of Olive Phenolics in the Context of Amine Oxidase Enzyme Inhibition and Depression: In Silico Modelling and In Vitro Validation” (Molecules, 2024).

Experiment [1] deals with T1, LSD1.
T1 construct: nuclear proteins extracted from the BJ cultures were directly assayed for LSD1 activity; endogenous in cells; host or cells: BJ human foreskin fibroblasts (nuclear extract, DEX-stimulated)
Kind of experiment: LSD1 activity in nuclear extracts of BJ cells stimulated with DEX. In kind it is cell-based, human. The note with it: DEX 50 μM 72 h, then TCP 5 μM or OLP, HT, HTA 50 μM for 48 h.
Description: Histone demethylase LSD1 activity assay
4µL of nuclear extracts containing 5µg protein was added to designated strip wells with stably
captured LSD1 substrate (H3K4me2), followed by an additional 26µL of H3K4me2 (HG3)
substrate diluted in assay buffer (HG2). In no enzyme control wells, the 4µL of nuclear
extracts was replaced with 4µL of assay buffer. Blank wells contained 30µL of assay buffer.
A standard curve was generated by adding 1µL of standard (HG4) at incrementally increasing
concentrations (0.1-10ng/µL) to 29µL of assay buffer in designated standard wells. After all
wells were loaded appropriately, the assay plate was incubated away from light at room
temperature for 60 minutes. Following incubation, contents were aspirated and wells were
washed three times with 150µL of wash buffer (HG1). 50µL of capture antibody (HG5)
diluted at a 1:1000 ratio was then added to all wells before incubating at room temperature
for 60 minutes on a rotating platform. Well contents were then aspirated and washed four
times with 150µL of wash buffer. 50µL of detection antibody (HG6) diluted at a 1:1000 ration
was then added to each well. Assay plate was then incubated for a final time at room
temperature for 30 minutes. Well contents were aspirated again, followed by six washes with
150µL wash buffer. 50µL of fluoro-developer (HG7) was then added into each well and
allowed to develop away from light for 1-5 minutes. Fluorescence was then read on a
CLARIOstar Microplate Reader (BMG Labtech, Ortenberg Germany) at Ex/Em =

The subject of experiment [2] is T2, MAO-B.
T2 construct: endogenous in cells; host or cells: BJ human foreskin fibroblasts stimulated with DEX or HC
Kind of experiment: MAO-B activity assay in hESC-derived neurons stimulated with ATRA. The note with it: 1 μM ATRA 24 h, then TCP 5 μM, OLC 50 μM or OLP 50 μM for 24 h. In kind it is cell-based, human. On the procedure:
(§1) An in vitro model of MDD was designed for stem cell-derived neuronal cells through incubation of 1 μM all-trans retinoic acid (Sigma-Aldrich PHR1187, St. Louis, MO, USA). All cell treatments were conducted in duplicate and replicated using independently differentiating neuronal plates.
(§2) Activity assays were commercially sourced from BioVision (Abcam, BioVision ab241031, Waltham, MA, USA) and were performed according to manufacturer’s instructions. The treatment groups were plated in duplicate on a black, flat 96-well microplate. The cells were homogenised in assay buffer using a microtube mixer at 4 °C and centrifuged at 10,000× g for 10 min. A Bradford assay was performed to determine the total protein concentration within each cell pellet (200 μg/well for BJ cells, 40 μg/well for hESC-derived neurons). Approximately 40 μL of supernatant was loaded into wells along with 10 μL of either […], or assay buffer for total MAO activity. A H2O2 standard was pipetted as supplied and 50 μL of reaction mix was pipetted into all wells. Using a CLARIOstar Plus Microplate Reader, (BMG Labtech, Ortenberg, Germany), fluorescence was measured kinetically at 25 °C for 60 min with Ex/Em = 535/587 nm.

For experiment [3], the system named is T3, MAO-A.
T3 construct: endogenous in cells; host or cells: BJ human foreskin fibroblasts stimulated with DEX or HC
Put plainly: MAO-A activity assay in hESC-derived neurons stimulated with ATRA. In kind it is cell-based, human. The note with it: 1 μM ATRA 24 h, then TCP 5 μM, OLC 50 μM or OLP 50 μM for 24 h. On the procedure:
as §1, §2

The next experiment has as its system total MAO. Kind of experiment: Total MAO activity assay in hESC-derived neurons stimulated with ATRA. In kind it is cell-based, human. The note with it: 1 μM ATRA 24 h, then TCP 5 μM, OLC 50 μM or OLP 50 μM for 24 h. On the procedure: as §1, §2
Experiment [4] has as its target MAO-A. On the set-up: method as in PMID 17915852. The note with it: read-out: inhibition constant, MAO-A; cited from earlier work.
Experiment [5] concerns the target MAO-B. The arrangement: method as in PMID 17915852. The note with it: read-out: inhibition constant, MAO-B; cited from earlier work.
Experiment [6] concerns the target T4, LSD1 (Homo sapiens, UniProt O60341).
T4 construct: Reaction Biology Corporation (performed the assay)
Kind of experiment: LSD1 fluorescence coupling enzyme assay (Reaction Biology Corporation). In kind it is biochemical. The note with it: Reaction Biology Corp., 30 min pre-incubation, 10 μM histone H3(1-21)K4me2 peptide substrate; read-out: IC50, LSD1 demethylase activity. On the procedure:
The inhibitory activity of HCl 489479, OLC, and OLP was measured using a fluorescence coupling enzyme assay (performed by Reaction Biology Corporation). […] All compounds were pre-incubated for 30 min with the enzyme before the addition of 10 μM histone H3(1-21)K4me2 peptide substrate to start the reaction. Fluorescence was measured using an EnVision Multimode Plate Reader at Ex/Em = 535/590.

The test system of a further experiment is H3K4 mono-methylation. Kind of experiment: H3K4 mono-methylation in BJ cells (Western blotting). The note with it: 50 μM, 48 h, compared to untreated cells; effects more pronounced with DEX. In kind it is cell-based, human. The protocol: As described in the Supplementary Information, nuclear proteins extracted from the BJ cultures were directly assayed for LSD1 activity (Epigentek P-3076, Farmingdale, NY, USA). Fluorescence was read on a CLARIOstar Microplate Reader (BMG Labtech, Ortenberg, Germany) at Ex/Em = 530/590 nm (Figure S4). Histone proteins were extracted from the treated cultures and were analysed through Western blotting. The mono-methylation status of lysine on histone 3 (H3K4) was determined via immunodetection (Table S6).
100µL of Nuclear Extraction Buffer containing 0.2µL 1M DTT and 0.4µL PIC was then added to the remaining nuclei-containing pellets. Full resuspension was achieved through multiple rounds of vigorous vortexing and ice incubations (to maintain protein integrity). Once the entire pellet was visibly resuspended in NEB, tubes were centrifuged at 16,000g for 10 minutes. The resulting supernatant containing the nuclear extract fraction was transferred to clean 0.5mL tubes and stored at -80°C.
Acid extraction of histone proteins
Cells were washed in 10mL of pre-chilled PBS (1X) and detached from flask surface via mechanical disruption using a cell scraper. Cell solution was then transferred into a 15mL tube and centrifuged at 150g for 10 minutes. Supernatant was then discarded and the remaining cell pellet resuspended in 0.5mL PBS (1X) and transferred into a 1.5mL microcentrifuge tube. Cells were then centrifuged at 9400g for 20 seconds, after which the supernatant was removed and discarded. The remaining pellet was then briefly resuspended in 600µL of acid extraction lysis buffer (10mM KCl, 10mM HEPES, […]) containing cOmplete™ Mini Protease Inhibitor Cocktail (Sigma-Aldrich, Roche 11836153001, MO USA) and 0.3µL 1M DTT. This will cause cells to pre-swell, resulting in a reduced amount of PBS (1X) remaining in the microcentrifuge tube that may deter maximal cell lysis capacity. Cells were then centrifuged at 9400g for 20 seconds with the resultant supernatant aspirated and discarded. […]

The next experiment addresses T5, purified MAO-A (Homo sapiens, UniProt P21397).
T5 construct: purchased Sigma-Aldrich MAK295
T5 sequence (P21397 1-527): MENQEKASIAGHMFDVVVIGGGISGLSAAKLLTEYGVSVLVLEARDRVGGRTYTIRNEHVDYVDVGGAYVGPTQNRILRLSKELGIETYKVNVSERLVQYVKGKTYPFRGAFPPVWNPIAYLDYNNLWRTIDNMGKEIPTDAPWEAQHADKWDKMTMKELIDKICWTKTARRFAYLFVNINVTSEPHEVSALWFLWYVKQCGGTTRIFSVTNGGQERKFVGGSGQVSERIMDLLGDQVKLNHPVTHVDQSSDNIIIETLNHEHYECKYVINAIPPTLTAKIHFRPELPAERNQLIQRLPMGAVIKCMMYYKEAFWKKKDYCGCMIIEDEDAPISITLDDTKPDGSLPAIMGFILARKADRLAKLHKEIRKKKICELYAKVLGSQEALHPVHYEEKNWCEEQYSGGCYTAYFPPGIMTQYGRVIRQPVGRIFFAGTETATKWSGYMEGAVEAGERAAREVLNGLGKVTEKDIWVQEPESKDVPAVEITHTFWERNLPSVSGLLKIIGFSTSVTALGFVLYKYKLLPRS
Kind of experiment: MAO-A direct screening assay (inhibitor screening kit). In kind it is biochemical. The note with it: purified enzyme; read-out: IC50, inhibition of MAO-A. The protocol:
(§3) The assays were conducted for MAO-A and MAO-B according to the manufacturer’s instructions.

Another experiment has as its target purified LSD1 (Homo sapiens, UniProt O60341). Kind of experiment: LSD1 direct screening assay (Epigentek inhibitory screening kit). The note with it: direct incubation with purified LSD1, Epigentek kit; read-out: IC50, inhibition of LSD1. In kind it is biochemical. On the procedure:
Fluorescence was measured using a CLARIOstar Plus Microplate Reader (BMG Labtech, Ortenberg, Germany) at excitation and emission wavelengths of 530 nm and 590 nm, respectively (Ex/Em = 530/590 nm).

A further experiment deals with human skin fibroblasts. On the set-up: method as in PMID 37432217. The note with it: in comparison to untreated controls, at certain doses; cited from earlier work.
The target in another experiment is T6, purified MAO-B (Homo sapiens, UniProt P27338).
T6 construct: purchased Sigma-Aldrich MAK296
T6 sequence (P27338 1-520): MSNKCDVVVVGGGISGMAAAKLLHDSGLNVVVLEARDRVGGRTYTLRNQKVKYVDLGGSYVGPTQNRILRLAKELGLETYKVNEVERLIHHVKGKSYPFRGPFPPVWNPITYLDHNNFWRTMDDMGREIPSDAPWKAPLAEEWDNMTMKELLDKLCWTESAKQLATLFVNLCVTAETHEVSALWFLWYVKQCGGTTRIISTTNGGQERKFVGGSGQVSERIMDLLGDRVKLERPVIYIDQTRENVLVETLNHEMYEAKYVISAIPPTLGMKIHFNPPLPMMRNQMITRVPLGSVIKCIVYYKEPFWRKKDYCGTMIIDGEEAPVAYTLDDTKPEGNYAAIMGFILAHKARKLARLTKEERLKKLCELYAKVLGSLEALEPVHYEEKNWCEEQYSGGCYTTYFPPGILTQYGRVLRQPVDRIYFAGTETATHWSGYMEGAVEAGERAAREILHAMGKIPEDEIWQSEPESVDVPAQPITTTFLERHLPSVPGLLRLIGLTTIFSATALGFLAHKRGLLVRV
Put plainly: MAO-B direct screening assay (inhibitor screening kit). In kind it is biochemical. The note with it: purified enzyme; read-out: IC50, inhibition of MAO-B. The protocol:
as §3

The subject of experiment [7] is MAO-A. On the set-up: method as in PMID 30809547. The note with it: cited from earlier work.
Experiment [8] has as its system MAO-B. The arrangement: method as in PMID 30809547. The note with it: cited from earlier work.

Take `N[C@@H]1C[C@H]1c1ccccc1` (racemic) [TCP, tranylcypromine, reference compound]: the “LSD1 activity in BJ cultures stimulated with DEX” value (“LSD1 activity” for short) in the experiment with LSD1 [1] was “significant reduction”. Besides, the “MAO-B activity in hESC-derived neurons” value in the experiment on MAO-B [2] was “significantly reduced”. For the same compound, the “MAO-A activity in hESC-derived neurons” value with MAO-A [3] is given as “significantly reduced”. In addition, in the experiment with total MAO, the “total MAO activity in hESC-derived neurons” value is listed as “significantly reduced”.

Consider `CNCc1cc(=O)oc2cc(OCc3cccc(Cl)c3)ccc12` [7-(3-chlorobenzyloxy)-4-(methylamino)methyl-coumarin], for which the Ki on MAO-A [4] was 15.7 µM; at MAO-B [5], 100 nM.

In the case of `O=Cc1cc(=O)oc2cc(OCc3cccc(Cl)c3)ccc12` [7-(3-chlorobenzyloxy)-4-carboxaldehyde-coumarin], the Ki at MAO-A [4] is 11 µM; at MAO-B [5], 400 nM.

As for `OCCc1ccc(O)c(O)c1` [HT, hydroxytyrosol], the IC50 came to 570 nM on LSD1 [6], 430 nM at purified MAO-A and 39 nM on purified LSD1. The “LSD1 activity” value with LSD1 [1] is “significant reduction”. Moreover, in the experiment on H3K4 mono-methylation, the “baseline levels of H3K4 mono-methylation in BJ cells” value is given as “increased”. In addition, the “growth capacity of human skin fibroblasts” value in the experiment on human skin fibroblasts is “significantly increased”.

Turning to `CC(=O)OCCc1ccc(O)c(O)c1` [HTA, hydroxytyrosol acetate], the IC50 came out at 31 nM on LSD1 [6], 700 nM on purified MAO-A, 1100 nM at purified LSD1 and 91.4 µM on purified MAO-B. Moreover, the “LSD1 activity” value in the experiment with LSD1 [1] was “significant reduction”. In the experiment on H3K4 mono-methylation, the “baseline levels of H3K4 mono-methylation in BJ cells” value is listed as “increased”.

`COc1cc(/C=C/c2ccc(O)cc2)cc(OC)c1` [pterostilbene]: the IC50 was 13.4 µM in the experiment with MAO-A [7] and 0.138 µM in the experiment with MAO-B [8].

On to `Oc1ccc(/C=C/c2cc(O)cc(O)c2)cc1` [resveratrol], for which the results for the concentration for half-maximal inhibition (IC50) with MAO-A [7] and in the experiment with MAO-B [8] were 0.313 µM and 15.8 µM, respectively.

As for isoeugenol, the IC50 with MAO-B [8] was 102 µM.
